# In US20210255184A1, “Biosensor Device and Methods” (The New Zealand Institute for Plant and Food Research …, priority 2018, published 2021):
# Molecular target: T1, Or10a/Orco (Drosophila melanogaster, UniProt Q9VYZ1)
# T1 construct: his-tag; made in house; host or cells: baculovirus-infected Sf9 cells
# T1 sequence (Q9VYZ1 1-406): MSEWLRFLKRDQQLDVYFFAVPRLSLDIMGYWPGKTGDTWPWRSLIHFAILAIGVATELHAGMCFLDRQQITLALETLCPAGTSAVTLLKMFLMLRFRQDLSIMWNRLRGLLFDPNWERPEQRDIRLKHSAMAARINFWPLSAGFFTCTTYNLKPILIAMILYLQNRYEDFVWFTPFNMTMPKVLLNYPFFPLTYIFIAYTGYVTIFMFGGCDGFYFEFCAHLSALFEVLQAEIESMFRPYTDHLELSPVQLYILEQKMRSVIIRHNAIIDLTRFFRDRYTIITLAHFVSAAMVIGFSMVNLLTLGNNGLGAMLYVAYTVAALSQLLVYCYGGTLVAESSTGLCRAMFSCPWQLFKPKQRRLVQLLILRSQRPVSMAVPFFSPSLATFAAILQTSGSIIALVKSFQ
# T1 sequence (Q9VNB5 1-486 partner): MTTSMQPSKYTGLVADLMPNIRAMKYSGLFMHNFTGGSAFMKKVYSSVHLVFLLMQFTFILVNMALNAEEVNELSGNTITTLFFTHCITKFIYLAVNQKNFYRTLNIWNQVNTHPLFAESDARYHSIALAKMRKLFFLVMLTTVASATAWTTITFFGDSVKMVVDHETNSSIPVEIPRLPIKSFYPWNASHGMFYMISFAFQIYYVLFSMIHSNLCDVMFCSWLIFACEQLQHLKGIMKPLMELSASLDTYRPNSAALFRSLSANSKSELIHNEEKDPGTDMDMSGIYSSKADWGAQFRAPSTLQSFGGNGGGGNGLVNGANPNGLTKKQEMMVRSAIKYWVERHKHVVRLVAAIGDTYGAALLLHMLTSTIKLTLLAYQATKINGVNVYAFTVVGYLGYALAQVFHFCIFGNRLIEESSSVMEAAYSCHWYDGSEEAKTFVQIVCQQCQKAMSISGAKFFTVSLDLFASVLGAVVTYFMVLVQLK
# Assay: EIS sensor, Or10a/Orco liposomes on gold electrode
# Assay type: biochemical
# Method: Prior to their use, liposomes were defrosted on ice and then destabilized by incubating with 0.2% CHAPS for 15 min at room temperature. Then 200 μg of purified odorant receptor^28 was added to 1 mg of liposomes and rotated at 10 rpm for 1 h at room temperature. Excess detergent was removed by four additions of 25 mg of Bio-Beads SM-2 (Bio-Rad, USA) and incubation at 4° C. for 30 min, 2 h, overnight and a further 2 h respectively. The Bio-Beads were removed after each incubation period. The OrX or OrX/Orco integrated liposomes were pelleted by centrifugation at 100,000 g for 1 h, and were resuspended in 500 μL of rehydration buffer. Integration of OrXs and Orco into liposomes was assessed by density gradient ultracentrifugation (DGU) using Accudenz (Accurate Chemical & Scientific Corporation, USA). The integrated liposomes were brought to 40% Accudenz by the addition of an equal volume of 80% Accudenz solution, placed at the bottom of an ultra-centrifugation tube, and overlaid with 30% Accudenz solution, and DGU buffer (25 mM HEPES pH 7.5, 100 mM NaCl, 10% glycerol). The sample was then centrifuged at 100,000 g for 4 h at 4° C. Liposomes will float to the top of the gradient after Accudenz DGU due to their low density.
# 2 mM MHA was prepared by dissolving 1.36 μl of MHA in 5 ml ethanol (AR grade). The cleaned electrodes were immersed into MHA solution and incubated overnight. The next day, all the electrodes were washed with ethanol and deionised water thoroughly in order to remove the unreacted acid. A 2:1 mol:mol ratio of EDC:NHS (100 mM EDC, 50 mM NHS) was prepared in 2 ml PBS (pH=6.5) solution. Then, the electrodes were covered in 100 μl of this solution at 28° C. for an hour to activate the carboxylic (COOH) groups of the MHA.
# PBS solution was prepared by immersing one tablet of PBS in 200 ml of milli-Q water (according to manufacturers instructions) and filtered using 0.2-μm syringe filter. The pH of the prepared buffer solution was measured with a pH meter. OrX liposomes or OrX/Orco liposomes were diluted 100 fold in PBS buffer solution (pH=7.4) and the COOH-activated electrodes were incubated in that buffer solution at room temperature for one hour. Then, the electrodes were washed extensively with PBS buffer solution to wash out any unbound liposomes.
# PBS (pH=7.4) was used as an electrolyte to conduct electrochemical measurements. PBS buffer was degassed for about 30 minutes prior to electrochemical measurements. […] OR immobilized electrodes were incubated in relevant odorant solution for ˜30 minutes each and washed gently with PBS before EIS measurements. […]
structure (smiles),measurement,setting,value
COC(=O)c1ccccc1O [methyl salicylate],limit of detection,"EIS dose response, ligand 1 aM to 100 μM",1 fM
same,EC50,"Table 1, approximate",~1 pM
same,Sensitivity limit,"Table 1, * estimated visually from dose response graph",~10^−15 M*
same,Detection Range,Table 3,10^−15-10^−7 M
